According to article PMC12474915 (Nature Communications, 2025):

Target: T1, MET1MTase (Arabidopsis thaliana, UniProt P34881)
T1 construct: gene DMT1; residues 621-1534 (lacks RFTS1-2; acidic linker, BAH1-2, MTase), GST tag cleaved by HRV3C, E. coli Rosetta2 (DE3)
T1 sequence (P34881 621-1534): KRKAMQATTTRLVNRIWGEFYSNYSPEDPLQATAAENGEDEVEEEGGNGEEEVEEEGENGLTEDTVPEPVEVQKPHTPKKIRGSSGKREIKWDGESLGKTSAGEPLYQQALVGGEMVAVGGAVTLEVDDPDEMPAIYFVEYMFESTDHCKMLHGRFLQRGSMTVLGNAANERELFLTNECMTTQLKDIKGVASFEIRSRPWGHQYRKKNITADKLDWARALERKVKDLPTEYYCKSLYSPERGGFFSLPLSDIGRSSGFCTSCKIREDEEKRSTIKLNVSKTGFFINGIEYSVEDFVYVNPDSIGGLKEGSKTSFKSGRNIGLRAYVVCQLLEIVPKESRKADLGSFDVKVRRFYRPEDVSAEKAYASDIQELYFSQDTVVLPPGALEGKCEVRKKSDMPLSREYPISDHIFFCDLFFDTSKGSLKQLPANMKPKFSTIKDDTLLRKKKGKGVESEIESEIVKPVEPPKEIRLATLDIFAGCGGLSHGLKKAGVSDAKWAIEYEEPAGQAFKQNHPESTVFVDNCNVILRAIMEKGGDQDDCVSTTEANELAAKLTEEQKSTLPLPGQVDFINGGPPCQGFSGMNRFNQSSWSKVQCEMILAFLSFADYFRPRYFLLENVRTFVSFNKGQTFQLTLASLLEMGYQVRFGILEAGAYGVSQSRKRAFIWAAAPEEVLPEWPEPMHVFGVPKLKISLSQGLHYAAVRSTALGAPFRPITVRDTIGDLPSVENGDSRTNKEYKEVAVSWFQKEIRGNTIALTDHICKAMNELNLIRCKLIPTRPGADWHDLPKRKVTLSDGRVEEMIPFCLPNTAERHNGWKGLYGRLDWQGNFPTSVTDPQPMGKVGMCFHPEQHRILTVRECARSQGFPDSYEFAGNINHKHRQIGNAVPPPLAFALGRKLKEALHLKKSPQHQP
Assay: cryo-EM structure
Type: binding
Conditions: ternary complex with 12 bp hemimethylated DNA (5-fluorocytosine covalently bound to Cys1198); formed from added SAM; 2.74 Å

Question: How did the cryo-EM structure turn out when `Nc1ncnc2c1ncn2[C@@H]1O[C@H](CSCC[C@H](N)C(=O)O)[C@@H](O)[C@H]1O` [SAH, S-adenosyl homocysteine] was run?
Answer: The cryo-EM structure was “catalytic core containing S-adenosyl homocysteine (SAH, a methyl donor cofactor product) binding site”.
